From patent publication US20060073994A1, “Liquid detergent composition” (Conopco, Inc., d/b/a UNILEVER, priority 2004, published 2006)

Tested on: Protease enzyme
Test: Residual activity of protease enzyme in liquid detergent formulation with added perfume component after storage
Format: biochemical
Conditions: 0.06% by weight perfume component added to 'base' liquid formulation; 2 weeks storage at 37° C.; activity determined at 40° C. in TRIS pH 9 buffer, tetrapeptide substrate; relative to t=0
Description: The following ‘base’ liquid detergent formulation was prepared: […]
The residual activity of the protease enzyme in all thus-formed formulations after 2 weeks storage at 37° C., was determined at 40° C. in a TRIS pH 9 buffer and using tetrapeptide as substrate. For this determination, the following protocol was used: Samples of 70 mg of the tested liquid formulation were diluted in 10.00 ml MilliQ water. 10 μl of this solution was added to an assay of 205 μl containing 74.4 mM TRIS pH9 and 0.494 mM tetrapeptide (succinyl-Ala-Ala-Pro-Phe-p-Nitroanilide). The absorbance of the tested samples at a wavelength of […] was measured for 15 minutes at 40° C., using a spectrophotometer. The absolute changes in absorbance as compared to the absorbance measured on a freshly prepared calibration sample were correlated to the measured activity of such freshly prepared sample. The measured protease enzyme activity is expressed as GU/ml.
The residual enzyme activity (expressed as %) is the enzyme activity after storage of the liquid formulation concerned divided by the enzyme activity measured at t=0.

Compound: C/C=C\C(=O)C1C(C)=CCCC1(C)C (stereo not drawn) [Alpha damascone]
- Residual activity after 2 weeks: 68%

Compound: O=Cc1ccccc1 [Benzaldehyde]
- Residual activity after 2 weeks: 67%

Compound: CC(=O)OCc1ccccc1 [Benzyl acetate]
- Residual activity after 2 weeks: 69%

Compound: O=C/C=C/c1ccccc1 [Cinnamic aldehyde]
- Residual activity after 2 weeks: 58%

Compound: CC(C)=CCCC(C)=CC=O [Citral]
- Residual activity after 2 weeks: 36%

Compound: CC(C)=CCCC(C)CC=O (stereo not drawn) [Citronellal]
- Residual activity after 2 weeks: 62%

Compound: CC1=CC(C)C(C=O)CC1 (stereo not drawn) [Cyclal C]
- Residual activity after 2 weeks: 45%

Compound: CC1=CCC(C(C)C)=CC1 [Gamma terpinolene]
- Residual activity after 2 weeks: 54%

Compound: CCCCCCC(C=O)=Cc1ccccc1 [Hexylcinnamic aldehyde]
- Residual activity after 2 weeks: 81%

Compound: CC(=O)C1(C)CC2=C(CCCC2(C)C)CC1C (stereo not drawn) [Iso e super]
- Residual activity after 2 weeks: 75%

Compound: CC(C=O)Cc1ccc(C(C)(C)C)cc1 (stereo not drawn) [Lilial]
- Residual activity after 2 weeks: 48%

Compound: C=C(C)[C@H]1CC=C(C)CC1 [Limonene]
- Residual activity after 2 weeks: 60%

Compound: COC(=O)c1ccccc1N [Methyl anthranilate]
- Residual activity after 2 weeks: 70%

Compound: CCCCCCCC=O [Octanal]
- Residual activity after 2 weeks: 44%

Compound: N#CC(=C1CCCCC1)c1ccccc1 [Peonile]
- Residual activity after 2 weeks: 73%

Compound: CC(C)=CCCC1=CCC(C)(C=O)CC1 (stereo not drawn) [Precyclemone]
- Residual activity after 2 weeks: 74%

Compound: CC(C)=C1CC[C@@H](C)CC1=O [Pulegone]
- Residual activity after 2 weeks: 58%

Compound: CC(C)=CC1CC(C)CCO1 (stereo not drawn) [Rose oxide]
- Residual activity after 2 weeks: 60%

Compound: CC1=CCC(=C(C)C)CC1 [Terpinolene]
- Residual activity after 2 weeks: 47%

Compound: CCC(C)(O)CCCC(C)C (stereo not drawn) [Tetra hydrolinalool]
- Residual activity after 2 weeks: 65%

Compound: CCCCCCCCCC/C=C/C=O [Tridecylenic aldehyde]
- Residual activity after 2 weeks: 45%

Compound: CC(CC=O)c1ccccc1 (stereo not drawn) [Trifernal]
- Residual activity after 2 weeks: 74%

Compound: COc1cc(C=O)ccc1O [Vanillin]
- Residual activity after 2 weeks: 43%

Compound: Vertofix coeur
- Residual activity after 2 weeks: 68%
